# According to patent US12492197B2, “3,5-disubstituted pyrazole compounds as kinase inhibitors and uses thereof” (IMPACT THERAPEUTICS (SHANGHAI), INC, priority 2019, dated 2025):
# Key:
# CHK1 kinase = target: T1, CHK1 kinase (Homo sapiens, UniProt O14757); assay: CHK1 kinase inhibition, ADP-Glo kinase assay; format: biochemical; conditions: ATP 10 μM, CHK1 1 ng/well; for inhibition at 0.01 µM: compound concentration 10 nM, read-out: Inh % (inhibitory effect on CHK1 kinase activity); for IC50: read-out: IC50 (inhibitory effect on CHK1 kinase activity)
# T1 construct: purchased Promega V1941
# T1 sequence (O14757 1-476): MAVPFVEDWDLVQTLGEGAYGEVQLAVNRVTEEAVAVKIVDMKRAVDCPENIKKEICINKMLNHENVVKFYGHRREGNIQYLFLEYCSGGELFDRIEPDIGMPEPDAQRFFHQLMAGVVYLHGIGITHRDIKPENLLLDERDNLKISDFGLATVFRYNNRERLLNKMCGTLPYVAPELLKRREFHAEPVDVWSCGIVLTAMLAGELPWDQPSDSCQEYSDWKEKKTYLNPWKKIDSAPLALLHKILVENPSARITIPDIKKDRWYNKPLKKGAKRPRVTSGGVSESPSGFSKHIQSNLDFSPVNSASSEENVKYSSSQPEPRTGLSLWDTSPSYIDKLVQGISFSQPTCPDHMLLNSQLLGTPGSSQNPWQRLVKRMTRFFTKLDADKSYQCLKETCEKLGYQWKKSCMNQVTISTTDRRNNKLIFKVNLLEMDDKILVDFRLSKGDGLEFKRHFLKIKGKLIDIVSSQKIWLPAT
# Description: 2 μL of kinase CHK1 (#V1941, Promega), 1 μL of compound diluted with buffer, and 2 μL of ATP substrate was successively added to a 384-well plate (final concentration of CHK1 was 1 ng/well, ATP was 10 μM). The positive control wells contained CHK1, ATP and DMSO whereas the negative control wells contained ATP, DMSO without enzyme. The mixtures were centrifuged at 1000 rpm for 1 minute and kept in darkness at room temperature for 1 hour to react. Then, 5 μL of ADP-Glo reagent was added to each well and incubated at room temperature for 40 minutes. At the end of incubation, 10 μL of kinase detection reagent was added to each well, and the relative chemiluminescence values (RLU) were measured on Varioskan® Flash (Thermo). The following calculation was performed: Inhibition rate %=(RLU of positive control−RLU of compound)/(RLU of positive control−RLU of negative control)×100. Data were analyzed using GraphPad Prism6.0 and fitted using the curve equation: Y=Bottom+(Top-Bottom)/(1+10^((Log IC50−X)*HillSlope)), and IC50 values were calculated.
# [1] = system: human colon cancer cell LoVo; assay: Proliferation of LoVo cells, MTT assay; format: cell-based; conditions: 96 h, 4 days treatment, read-out: IC50 (inhibition of proliferation of LoVo)
# Description: Newly revived LoVo cells (purchased from Shanghai Cell Institute) were cultured and passaged for at least three generations before use. Cells were used at 90% confluence for experiment. Cells were digested with trypsinase and centrifuged at 800 rpm for 5 minutes and the supernatant was discarded. The cell pellets were resuspended in fresh RPMI1640 medium and counted. Cells were seeded on 96-well cell culture plates at 5000 cells/well and incubated overnight at 37° C., 5% CO2. The stock solutions of the test substances (including the test compounds and the reference compound) were serially diluted to 8 concentrations with DMSO at a ratio of 1:3. 5 μL of each series diluted solutions was added to 120 μL of medium (diluted by 25 times) and mixed by shaking. […] The cell culture plates were returned to incubator at 37° C. and 5% CO2 for 4 days. At the end of treatment, the cell viability was determined by MTT colorimetric assay. Cell culture medium in each well was replaced by 100 μL/well of serum-free DMEM medium containing MTT (0.5 mg/mL), and the culture was continued for additional 4 hours. Medium was then discarded and 100 μL/well of DMSO was added.
# (§1) Data was analyzed by GraphPad Prism 6.0. The inhibitory effects of compounds on cell proliferation were plotted based on cell viability vs. the logarithm of compound concentration. Cell viability %=(ODcompound−ODbackground)/(ODDMSO−ODbackground)×100.
# [2] = system: human breast cancer cell HCC1806; assay: Proliferation of HCC1806 cells, MTT assay; format: cell-based; conditions: HCC1806, 72 h, 3 days treatment, read-out: IC50 (inhibition of proliferation of HCC1806)
# Description: Newly revived HCC1806 cells (purchased from Guangzhou Genio) were cultured and passaged for at least three generations before use. Cells were used at 90% confluency for experiments. Cells were digested with trypsinase and centrifuged at 800 rpm for 5 minutes. The cell pellets were resuspended in fresh RPMI1640 medium and cells were counted. Cells were seeded on 96-well cell culture plates at 2000 cells/well and incubated overnight at 37° C., 5% CO2. The stock solutions of the test substances (including the test compounds and the reference compound) were serially diluted to 8 concentrations with DMSO at a ratio of 1:3. Five μL of each of the serially diluted solutions were added to 120 μL of medium (diluted by 25 times) and mixed by shaking. […] The cell culture plates were returned to incubator at 37° C., 5% CO2 for 3 days. At the end of treatment the cell viability was determined by MTT colorimetric assay. Cell culture medium in each well was replaced by 100 μL/well of serum-free fresh medium containing MTT (0.5 mg/mL), and the culture was continued for additional 4 hours.
# as §1
SMILES,inhibition at 0.01 µM (CHK1 kinase) [%],IC50 [1] [nM],IC50 [2] [nM],IC50 (CHK1 kinase) [nM]
"N#Cc1cnc(Nc2cc(-c3c(F)cccc3OC[C@H]3CCNC3)[nH]n2)cn1 [Example 54, (S)-5-((5-(2-fluoro-6-(pyrrolidin-3-ylmethoxy)phenyl)-1H-pyrazol-3-yl)amino)pyrazine-2-carbonitrile]",,16.2,30.7,0.86
"N#Cc1cnc(Nc2cc(-c3c(F)cc(F)cc3OC[C@H]3CCCNC3)[nH]n2)cn1 [Example 56, (S)-5-((5-(2,4-difluoro-6-(piperidin-3-ylmethoxy)phenyl)-1H-pyrazol-3-yl)amino)pyrazine-2-carbonitrile]",,22.3,27.4,1.02
"N#Cc1cnc(Nc2cc(-c3c(F)cc(Br)cc3OC[C@H]3CCCNC3)[nH]n2)cn1 [Example 59, (S)-5-((5-(4-bromo-2-fluoro-6-(piperidin-3-ylmethoxy)phenyl)-1H-pyrazol-3-yl)amino)pyrazine-2-carbonitrile]",,60.8,60,2.27
"Cc1cc(F)c(-c2cc(Nc3cnc(C#N)cn3)n[nH]2)c(OC[C@H]2CCCNC2)c1 [Example 63, (S)-5-((5-(2-fluoro-4-methyl-6-(piperidin-3-ylmethoxy)phenyl)-1H-pyrazol-3-yl)amino)pyrazine-2-carbonitrile]",,40.2,52.6,1.66
"COc1cccc(OC[C@H]2CCCN2)c1-c1cc(Nc2cnc(C#N)cn2)n[nH]1 [Example 65, (R)-5-((5-(2-methoxy-6-(pyrrolidin-2-ylmethoxy)phenyl)-1H-pyrazol-3-yl)amino)pyrazine-2-carbonitrile]",,7.3,11.9,0.26
"COc1cc(F)cc(OC[C@H]2CCCN2)c1-c1cc(Nc2cnc(C#N)cn2)n[nH]1 [Example 66, (R)-5-((5-(4-fluoro-2-methoxy-6-(pyrrolidin-2-ylmethoxy)phenyl)-1H-pyrazol-3-yl)amino)pyrazine-2-carbonitrile]",,14.3,26.5,1.22
"COc1cc(Cl)cc(OCC2CNC2)c1-c1cc(Nc2cnc(C#N)cn2)n[nH]1 [Example 67, 5-((5-(2-(azetidin-3-ylmethoxy)-4-chloro-6-methoxyphenyl)-1H-pyrazol-3-yl)amino)pyrazine-2-carbonitrile]",,9.1,8.7,1.72
"COc1cc(Cl)cc(OC[C@H]2CCNC2)c1-c1cc(Nc2cnc(C#N)cn2)n[nH]1 [Example 68, (S)-5-((5-(4-chloro-2-methoxy-6-(pyrrolidin-3-ylmethoxy)phenyl)-1H-pyrazol-3-yl)amino)pyrazine-2-carbonitrile]",,2.3,2.8,0.44

# Further compounds by falling IC50 [1], results first:
inhibition at 0.01 µM (CHK1 kinase) [%],IC50 [1] [nM],IC50 [2] [nM],IC50 (CHK1 kinase) [nM],SMILES
40,533,381,,"N#Cc1cnc(Nc2cc(-c3c(Cl)cccc3OC[C@H]3CCCNC3)[nH]n2)cn1 [Example 47, (S)-5-((5-(2-chloro-6-(piperidin-3-ylmethoxy)phenyl)-1H-pyrazol-3-yl)amino)pyrazine-2-carbonitrile]"
82,153,315,,"N#Cc1cnc(Nc2cc(-c3c(F)cccc3OC[C@@H]3CNCCO3)[nH]n2)cn1 [Example 55, (S)-5-((5-(2-fluoro-6-(morpholin-2-ylmethoxy)phenyl)-1H-pyrazol-3-yl)amino)pyrazine-2-carbonitrile]"
92,106,170,,"N#Cc1cnc(Nc2cc(-c3c(F)cc(Cl)cc3OC[C@H]3CCCNC3)[nH]n2)cn1 [Example 57, (S)-5-((5-(4-chloro-2-fluoro-6-(piperidin-3-ylmethoxy)phenyl)-1H-pyrazol-3-yl)amino)pyrazine-2-carbonitrile]"
95,72,89.4,,"N#Cc1cnc(Nc2cc(-c3c(F)cccc3OCC3CNC3)[nH]n2)cn1 [Example 53, 5-((5-(2-(azetidin-3-ylmethoxy)-6-fluorophenyl)-1H-pyrazol-3-yl)amino)pyrazine-2-carbonitrile]"
85,66.6,69.2,,"COc1c(C)ccc(OC[C@H]2CCCNC2)c1-c1cc(Nc2cnc(C#N)cn2)n[nH]1 [Example 42, (S)-5-((5-(2-methoxy-3-methyl-6-(piperidin-3-ylmethoxy)phenyl)-1H-pyrazol-3-yl)amino)pyrazine-2-carbonitrile]"
,18,13.3,0.93,"COc1cc(C)cc(OC[C@@H]2CNCCO2)c1-c1cc(Nc2cnc(C#N)cn2)n[nH]1 [Example 44, (S)-5-((5-(2-methoxy-4-methyl-6-(morpholin-2-ylmethoxy)phenyl)-1H-pyrazol-3-yl)amino)pyrazine-2-carbonitrile]"
,18,21.6,1.58,"Cc1cc(F)c(-c2cc(Nc3cnc(C#N)cn3)n[nH]2)c(OC[C@H]2CCNC2)c1 [Example 62, (S)-5-((5-(2-fluoro-4-methyl-6-(pyrrolidin-3-ylmethoxy)phenyl)-1H-pyrazol-3-yl)amino)pyrazine-2-carbonitrile]"
,13.3,14.7,0.59,"N#Cc1cnc(Nc2cc(-c3c(F)cccc3OC[C@H]3CCCNC3)[nH]n2)cn1 [Example 46, (S)-5-((5-(2-fluoro-6-(piperidin-3-ylmethoxy)phenyl)-1H-pyrazol-3-yl)amino)pyrazine-2-carbonitrile]"
,9.5,8.8,1.57,"COc1cc(C(F)(F)F)cc(OC[C@H]2CCCNC2)c1-c1cc(Nc2cnc(C#N)cn2)n[nH]1 [Example 45, (S)-5-((5-(2-methoxy-6-(piperidin-3-ylmethoxy)-4-(trifluoromethyl)phenyl)-1H-pyrazol-3-yl)amino)pyrazine-2-carbonitrile]"
,5.4,6.5,0.58,"N#Cc1cnc(Nc2cc(-c3c(O)cccc3OC[C@H]3CCCNC3)[nH]n2)cn1 [Example 48, (S)-5-((5-(2-hydroxy-6-(piperidin-3-ylmethoxy)phenyl)-1H-pyrazol-3-yl)amino)pyrazine-2-carbonitrile]"
,3.6,4.9,1.16,"COc1cc(Br)cc(OC[C@H]2CCNC2)c1-c1cc(Nc2cnc(C#N)cn2)n[nH]1 [Example 70, (S)-5-((5-(4-bromo-2-methoxy-6-(pyrrolidin-3-ylmethoxy)phenyl)-1H-pyrazol-3-yl)amino)pyrazine-2-carbonitrile]"
,1.6,1.6,1.17,"COc1cc(C)cc(OC[C@H]2CCCNC2)c1-c1cc(Nc2cnc(C#N)cn2)n[nH]1 [Example 43, (S)-5-((5-(2-methoxy-4-methyl-6-(piperidin-3-ylmethoxy)phenyl)-1H-pyrazol-3-yl)amino)pyrazine-2-carbonitrile]"
